How the values were obtained:
[1] = refractive index (Na D-line) (dimensionless); xn = mol fraction of the nth substance listed; conditions: 101 kPa, Liquid, Standard Abbe refractometry
[2] = relative permittivity at zero frequency (dimensionless); xn = mol fraction of the nth substance listed; conditions: 101 kPa, Liquid, Parallel plate capacitor

CCCCC(CC)CO (stereo not given) [2-ethyl-1-hexanol] + CCC(O)CO
Conditions | refractive index, 298.2 K | refractive index, 308.2 K | refractive index, 318.2 K | relative permittivity at zero frequency, 298.2 K | relative permittivity at zero frequency, 308.2 K | relative permittivity at zero frequency, 318.2 K
[1], x2 = 0 | 1.4293 | 1.4252 | 1.4213 | – | – | –
[1], x2 = 0.111 | 1.4295 | 1.4254 | 1.4215 | – | – | –
[1], x2 = 0.199 | 1.4295 | 1.4257 | 1.4219 | – | – | –
[1], x2 = 0.291 | 1.4299 | 1.4259 | 1.4222 | – | – | –
[1], x2 = 0.345 | 1.4301 | 1.4261 | 1.4225 | – | – | –
[1], x2 = 0.399 | 1.4303 | 1.4265 | 1.4228 | – | – | –
[1], x2 = 0.448 | 1.4307 | 1.4269 | 1.423 | – | – | –
[1], x2 = 0.501 | 1.431 | 1.4272 | 1.4234 | – | – | –
[1], x2 = 0.563 | 1.4313 | 1.4275 | 1.4237 | – | – | –
[1], x2 = 0.625 | 1.432 | 1.4281 | 1.4241 | – | – | –
[1], x2 = 0.667 | 1.4323 | 1.4284 | 1.4245 | – | – | –
[1], x2 = 0.702 | 1.4327 | 1.4289 | 1.4249 | – | – | –
[1], x2 = 0.75 | 1.4335 | 1.4295 | 1.4253 | – | – | –
[1], x2 = 0.814 | 1.4342 | 1.4303 | 1.4259 | – | – | –
[1], x2 = 0.897 | 1.4354 | 1.4314 | 1.427 | – | – | –
[2], x2 = 0 | – | – | – | 7.353 | 6.362 | 5.52
[2], x2 = 0.111 | – | – | – | 7.683 | 6.922 | 6.232
[2], x2 = 0.199 | – | – | – | 8.152 | 7.52 | 6.851
[2], x2 = 0.291 | – | – | – | 8.91 | 8.32 | 7.636
[2], x2 = 0.345 | – | – | – | 9.464 | 8.8 | 8.14
[2], x2 = 0.399 | – | – | – | 10.065 | 9.44 | 8.701
[2], x2 = 0.448 | – | – | – | 10.678 | 9.995 | 9.312
[2], x2 = 0.501 | – | – | – | 11.404 | 10.69 | 9.954
[2], x2 = 0.563 | – | – | – | 12.382 | 11.556 | 10.873
[2], x2 = 0.625 | – | – | – | 13.435 | 12.625 | 11.819
[2], x2 = 0.667 | – | – | – | 14.198 | 13.357 | 12.559
[2], x2 = 0.702 | – | – | – | 14.955 | 14.023 | 13.21
[2], x2 = 0.75 | – | – | – | 15.885 | 15.005 | 14.022
[2], x2 = 0.814 | – | – | – | 17.454 | 16.338 | 15.347
[2], x2 = 0.897 | – | – | – | 19.447 | 18.115 | 16.989
